Results from patent publication US20250325670A1, “NOVEL BORON AGENT” (priority 2021, published 2025).

How the values were obtained:
[1] = Changes in body weight after BNCT irradiation; type: in vivo, mouse; conditions: 25 mg (10B)/kg iv, neutron irradiated
Procedure: As described in (A), the U-87 MG tumor-bearing mice were injected with 200 μL of a PBS solution of a boron compound (PBC-IP-HSA, L-BPA: 25 mg (^10B)/kg for each) through the tail vein. The whole mouse was placed in an acrylic mouse holder and fixed to a thermoplastic plate having a thickness of 5 mm. Three hours (L-BPA) or six hours (PBC-IP-HSA) after administration, the right thigh of the mouse was irradiated with a neutron in a dose range of 4.5 to 6.1×10^12 neutrons/cm^2 in the KUR reactor. The BNCT effect was evaluated based on the changes in tumor volume in the mouse (FIG. 4B). In order to determine the tumor volume, two perpendicular diameters of the tumor were measured with slide calipers and calculated by using the spherical volume expression {4/3π×(R/2)^3}. Here, R is the average of the longest dimension and the shortest dimension (each in millimeters) of the tumor.
In the irradiation experiment carried out in (B), changes in body weight after irradiation were measured.

[2] = tested on: F98 malignant glioblastoma; assay: BNCT therapeutic effect (survival time) in F98 malignant glioblastoma cell-implanted rat brain tumor model; type: in vivo; conditions: after tumor implantation; BNCT with BPA (iv) or PBC-IP (CED)
Procedure: Three hours after administration of PBC-IP (CED), neutron irradiation was carried out to verify the therapeutic effect of neutron capture therapy (FIG. 7). The brain tumor models were divided into an untreated group, a neutron irradiation only group, a BNCT with BPA (iv) group, a BNCT with local administration of PBC-IP (CED) group, and a PBC-IP (CED) plus BPA (iv) group to carry out a treatment experiment, and the survival times after tumor implantation were compared. The therapeutic effect of intravenous BPA as a control for BNCT treatment represented a significant prolongation of survival time with a median survival time of 37 days. […] The effect was even higher in the group that received treatment with PBC-IP (CED) […] plus intravenous BPA, indicating the antitumor effect of PBC-IP on a BPA-refractory tumor site. In the C6-implanted rat brain tumor model, the tumor boron concentration by PBC-IP (CED) was about 36 ppm, which was higher than that for F98.
In a BNCT experiment, 14 days after implantation of 10^3 F98 malignant glioblastoma cells, neutron irradiation was carried out by using KURRI. Malignant glioblastoma cell-bearing rats were randomly divided into 5 groups (groups 1 to 5) so that each group consisted of 6 to 10 rats. […] The therapeutic effect was evaluated by the survival times of all rats.

[3] = tested on: A549 cells (FRα(−)); assay: BNCT antitumor effect in vitro (thermal neutron irradiation, MTT survival rate); type: cell-based, human; conditions: 25 ppm 10B, 3 hours, thermal neutron dose-dependent, MTT after 96 hours
Procedure: (A) Human brain tumor cell U87MG (FRα(+)), (B) human lung cancer cell A549 (FRα(−)). The cells were cultured for 3 hours with an agent ^10B at a concentration of 25 ppm, followed by removal of the agent and irradiated.
Cells (A549 1000 cells/well or U-87 MG 500 cells/well) seeded in a 96 well plate were cultured together with PBC-IP and L-BPA-fructose at a concentration of 25 ppm [^10B] at 37° C. for 3 hours, and then unilaterally irradiated with thermal neutrons from one side of the plate for 12 minutes. Subsequently, the medium was replaced, the cells were cultured for 96 hours, and then an MTT assay was carried out to evaluate the survival rate of the cells (FIG. 3). The thermal neutron irradiation was carried out by using the irradiation facility of the Institute for Integrated Radiation and Nuclear Science, Kyoto University (KUR), and the cells after irradiation were cultured in the controlled area of KUR. In addition, the survival rate is calculated based on the following expression.

[4] = tested on: A549, U87MG, C6, F98 cells; assay: Intracellular boron accumulation in various cells (ICP-AES); type: cell-based, human, rat; conditions: 5 μg B/mL
Procedure: F98 rat malignant glioblastoma cells were provided by Dr. Rolf Barth (Department of Pathology, The Ohio State University, Columbus, OH, US) and were cultured at 37° C. in 5% CO^2 by using Dulbecco's modified Eagle's medium (DMEM) supplemented with 10% fetal bovine serum (FBS) and 10% penicillin/streptomycin/amphotericin B. The F98 rat malignant glioblastoma cells were histologically characterized as anaplastic astrocytoma.
First, 5×10^5 cells were placed in a 100 mm dish (Becton Dickinson, Franklin Lakes, New Jersey) and cultured at 37° C. in 5% CO2 by using the medium described above. […] After that, the medium containing the boron compound was removed, and the cells were washed twice with 4% phosphate buffered saline (PBS) and then detached with a trypsin-ethylenediaminetetraacetic acid solution. After that, a medium was added, centrifugation (200×g, 5 minutes) was carried out twice, and cells were counted and finally sedimented. After that, the cells were digested with a 1 N nitric acid solution (Wako Pure Chemical Industries, Osaka Japan) overnight, and the amount of boron taken up was measured by inductively coupled plasma-atomic emission spectroscopy (ICP-AES) using an iCAP6300 emission spectrometer (Hitachi High-Technologies, Tokyo, Japan).

SMILES: N[C@@H](Cc1ccc(B(O)O)cc1)C(=O)O [BPA]
- changes in body weight after irradiation compared with the control group [1]: no significant difference
- median survival time [2]: 37 days
- BNCT antitumor effect (cell survival rate) [3]: higher BNCT antitumor effect
- selective accumulation among the four types of cells [4]: selective accumulation in the A549 cells
